Source: US8895746B2 (University of Central Florida Research Foundation, Inc., priority 2009, dated 2014)
“And” between values parts separate entries of the source, which are not always exact repeats. Equal values may be shown once.

Experiments:
Stat5:Stat5 complex = assay: EMSA selectivity, nuclear extracts of EGF-stimulated NIH3T3/hEGFR, MGFe probe; format: biochemical, mouse; details: up to 300 μM
Protocol: Nuclear extract preparations and electrophoretic mobility shift assay (EMSA) were carried out as previously described (28,33). […] Except where indicated, nuclear extracts were pre-incubated with compound for 30 min at room temperature prior to incubation with the radiolabeled probe for 30 min at 30° C. before subjecting to EMSA analysis.

His-tagged Stat3 = biological target: T1, His-tagged Stat3 (Mus musculus, UniProt P42227); assay: Surface Plasmon Resonance analysis of binding to immobilized His-tagged Stat3; design: species or system murine
T1 construct: Coding regions for the murine Stat3 protein; made in house; host or cells: E. coli BL21(DE3)
Description: (§1) Coding regions for the murine Stat3 protein and Stat3 SH2 domain were amplified by PCR and cloned into vectors pET-44 Ek/LIC (Novagen) and pET SUMO (Invitrogen), respectively.
Clones were sequenced to verify the correct sequences and orientation. His-tagged recombinant proteins were expressed in BL21(DE3) cells, and purified on Ni-ion sepharose column.
SensiQ and its analysis software Qdat (ICX Technologies, Oklahoma City, Okla.) were used to analyze the interaction between agents and the Stat3 protein and to determine the binding affinity. Purified Stat3 was immobilized on a HisCap Sensor Chip by injecting 50 µg/ml of Stat3 onto the chip. […] The association and dissociation rate constants were calculated using the Qdat software. The ratio of the association and dissociation rate constants was determined as the affinity (KD).
To provide definitive evidence of direct binding to Stat3, biophysical studies were performed. H1s-tagged Stat3 protein (or SH2 domain; 50 ng) was immobilized on a Ni-NTA sensor chip surface for Surface Plasmon Resonance analysis of the binding of 531201.1066 as the analyte. Association and dissociation measurements were taken and the binding affinity of S31-201.1066 for Stat3 was determined using Qdat software.

[1] = system: Src (pY416Src), Jak1 (pJak), Shc (pShc), and Erk1/2 (pErk1/2); assay: Western blot of phosphorylation of Src, Jak1, Shc, Erk1/2 in NIH3T3/v-Src and Panc-1 cells; format: cell-based, mouse, human
Protocol: (§2) Immunoprecipitation from whole-cell lysates and SDS/PAGE and Western blotting analysis were performed as previously described (33,38).
We infer that […].

Stat3:EGFR immunecomplex = biological target: T2, Stat3:EGFR immunecomplex (Homo sapiens, UniProt P40763); assay: Direct treatment of EGFR and Stat3 immunecomplexes from Panc-1 lysates, Western blotting; format: biochemical; details: 0-100 M, 3 h
T2 construct: precipitated from whole-cell lysates of untreated Panc-1 cells; endogenous in cells; host or cells: Panc-1 cells (immunoprecipitates from whole-cell lysates)
Protocol: as §2
The EGFR levels in the immunecomplexes remained unchanged (FIG. 4B(ii), upper band). […] The Stat3 levels in the immunecomplexes remained unchanged (FIG. 4B(ii), i.p. Stat3, blot Stat3).

[2] = system: NIH3T3/v-Src, MDA-MB-231 and Panc-1 cells; assay: Soft-agar colony formation assay; format: cell-based, mouse, human
Protocol: Colony formation assays were carried out in 6-well dishes, as described previously (16,37). Briefly, each well contained 1.5 ml of 1% agarose in Dulbeco's modified Eagle's medium as the bottom layer and 1.5 ml of 0.5% agarose in Dulbeco's modified Eagle's medium containing 4000 or 6000 NIH3T3/v-Src or NIH3T3/v-Ras fibroblasts, respectively, as the top layer. Treatment with S3I201.1066 was initiated 1 day after seeding cells by adding 80 μl of medium with or without S3I20.1.1066, and repeating every 3 days, until large colonies were evident. Colonies were quantified by staining with 20 μl of 1 mg/ml crystal violet, incubating at 37° C. overnight, and counting the next day under phase contrast microscope.

Stat3 = Stat3 (Mus musculus, UniProt P42227); assay: Fluorescence Polarization assay, Stat3 binding to 5-carboxyfluorescein-GpYLPQTV-NH2 probe; design: Coding regions for the murine Stat3 protein; made in house; host or cells: E. coli BL21(DE3); species or system murine; details: IC50, disruption of Stat3 binding to pTyr peptide probe, 150 nM Stat3, 10 nM probe
Protocol: as §1
Fluorescence Polarization (FP) Assay was conducted as previously reported (23), with some modification using the phospho-peptide, 5-carboxyfluorescein-GpYLPQTV-NH2 (phosphorylated SEQ ID NO:7) (where pY represents phospho-Tyr) as probe and Stat3. The FP assay was used to evaluate the binding of agents to Stat3 and to determine the ability to disrupt the Stat3:pTyr peptide interaction. A fixed concentration of the fluorescently-labeled peptide probe (10 nM) was incubated with increasing concentration of the Stat3 protein for 30 min at room temperature in the buffer, 50 mM NaCI, 10 mM HEPES, 1 mM EDTA, 0.1% Nonidet P-40, and the fluorescent polarization measurements were determined using the POLARstar Omega (BMG LABTECH, Durham, N.C.), with the set gain adjustment at 35 mP. The Z′ value was derived per the equation Z′=1−(3 SDbound+3 SD free)/(mPbound−mPfree), where SD is the standard deviation and mP is the average of fluorescence polarization. In the bound state, 10 nM 5-carboxyfluorescein-GpYLPQTV-NH2 (phosphorylated SEQ ID NO:7) was incubated with 150 nM purified Stat3 protein, while the free (unbound) state was the same mixture, but incubated with an additional 10 IJM unlabeled Ac-GpYLPQTV-NH2 (phosphorylated SEQ ID NO:7). For evaluating agents, Stat3 protein (150 nM) was incubated with serial concentrations of S31-201.1066 at 30° C. for 60 min in the indicated assay buffer conditions. Prior to the addition of the fluorescence probe, the protein:S31-201.1066 mixtures were allowed to equilibrate at room temperature for 15 min. Probe was added at a final concentration of 10 nM and incubated for 30 min at room temperature following which the FP measurements were taken using the POLARstar Omega, with the set gain adjustment at 35 mP.
The FP assay was used to further test the computational modeling prediction of the ability of S31-201.1066 to disrupt Stat3 interaction with its cognate pTyr peptide.

T2 sequence (P40763 2-770 limits assumed, one chain of several): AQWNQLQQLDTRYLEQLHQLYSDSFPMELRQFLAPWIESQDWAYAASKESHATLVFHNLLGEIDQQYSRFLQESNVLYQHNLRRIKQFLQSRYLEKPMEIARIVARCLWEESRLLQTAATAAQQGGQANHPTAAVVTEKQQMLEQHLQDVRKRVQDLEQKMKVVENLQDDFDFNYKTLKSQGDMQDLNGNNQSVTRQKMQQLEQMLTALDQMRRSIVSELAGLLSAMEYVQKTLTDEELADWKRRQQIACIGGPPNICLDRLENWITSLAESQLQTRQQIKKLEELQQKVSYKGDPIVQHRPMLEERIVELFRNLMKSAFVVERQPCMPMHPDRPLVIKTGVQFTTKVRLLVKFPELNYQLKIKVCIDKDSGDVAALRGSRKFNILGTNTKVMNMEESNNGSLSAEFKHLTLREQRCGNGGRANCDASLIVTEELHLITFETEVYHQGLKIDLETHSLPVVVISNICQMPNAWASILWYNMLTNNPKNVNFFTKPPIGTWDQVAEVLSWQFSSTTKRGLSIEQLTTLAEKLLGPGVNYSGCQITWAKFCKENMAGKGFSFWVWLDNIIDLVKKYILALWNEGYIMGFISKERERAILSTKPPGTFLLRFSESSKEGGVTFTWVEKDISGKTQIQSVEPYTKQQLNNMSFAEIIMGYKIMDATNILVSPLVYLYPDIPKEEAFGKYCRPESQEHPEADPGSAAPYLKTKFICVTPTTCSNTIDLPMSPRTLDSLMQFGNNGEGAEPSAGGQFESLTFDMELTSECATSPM
Chain of Stat3 (P42227 whole entry): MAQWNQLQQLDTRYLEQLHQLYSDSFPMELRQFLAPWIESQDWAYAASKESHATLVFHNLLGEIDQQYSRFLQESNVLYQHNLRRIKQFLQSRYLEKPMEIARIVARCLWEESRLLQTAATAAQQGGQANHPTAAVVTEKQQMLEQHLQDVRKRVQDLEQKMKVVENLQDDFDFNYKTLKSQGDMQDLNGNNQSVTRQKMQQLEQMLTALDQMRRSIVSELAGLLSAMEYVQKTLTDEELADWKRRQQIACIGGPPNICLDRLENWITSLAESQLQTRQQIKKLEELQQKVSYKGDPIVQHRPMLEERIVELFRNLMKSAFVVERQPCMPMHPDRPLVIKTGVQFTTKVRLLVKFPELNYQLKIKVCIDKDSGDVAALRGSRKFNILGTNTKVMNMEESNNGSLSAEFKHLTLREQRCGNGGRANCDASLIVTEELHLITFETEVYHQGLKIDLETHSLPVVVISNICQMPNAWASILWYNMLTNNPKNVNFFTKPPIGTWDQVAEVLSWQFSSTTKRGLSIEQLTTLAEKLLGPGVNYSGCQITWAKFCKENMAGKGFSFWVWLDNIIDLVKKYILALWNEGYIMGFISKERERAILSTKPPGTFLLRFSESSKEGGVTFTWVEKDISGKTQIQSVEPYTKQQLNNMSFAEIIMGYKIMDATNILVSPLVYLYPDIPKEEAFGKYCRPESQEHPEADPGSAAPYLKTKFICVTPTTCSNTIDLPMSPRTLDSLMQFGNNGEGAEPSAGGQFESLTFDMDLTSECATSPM
T1 sequence (P42227 whole entry): as above

**Q.** `Cc1ccc(S(=O)(=O)N(C)CC(=O)N(Cc2ccc(C3CCCCC3)cc2)c2ccc(C(=O)O)c(O)c2)cc1` [S3I-201.1066] was tested. Which “effect on Stat5:Stat5 complex with the MGFe probe” value (Stat5:Stat5 complex) did it give?
**A.** no effect

**Q.** What about the Kd (His-tagged Stat3; affinity (KD) for Stat3 or the SH2 domain, SPR) of the same molecule?
**A.** 2.3 µM

**Q.** What about the Kd (His-tagged Stat3; binding affinity, Ko / KD for Stat3, SPR, immobilized His-Stat3) of the same molecule?
**A.** 0.00274 µM

**Q.** And the “pJak1 level in Panc-1 cells” value ([1]; 100 μM, Panc-1)?
**A.** disappearance of pJak1 level

**Q.** And the “inhibitory effect on phosphorylation of Src, Jak1, Erk1/2MAPK and Shc” value ([1]; 30-50 μM)?
**A.** minimum inhibitory effect

**Q.** And the “phosphorylation of Src, Jak1, Shc and Erk1/2” value ([1]; 24 h, NIH3T3/v-Src and Panc-1)?
**A.** no significant effects

**Q.** What about the “EGFR levels in directly treated Stat3 immunecomplex” value (Stat3:EGFR immunecomplex) of the same molecule?
**A.** strongly reduced EGFR levels

**Q.** And the “level of Stat3 present in directly treated EGFR immunecomplex” value (Stat3:EGFR immunecomplex)?
**A.** dramatically diminished

**Q.** And the “levels of Shc or Grb 2 in directly treated EGFR immunecomplex” value (Stat3:EGFR immunecomplex)?
**A.** no visible changes

**Q.** What about the “growth in soft-agar suspension” value [2] of the same molecule?
**A.** significantly inhibited

**Q.** What about the IC50 (Stat3) of the same molecule?
**A.** 45 µM and 23 µM and 20 µM
